Consider four compounds from PMC6407579, “New flavonoid – N,N-dibenzyl(N-methyl)amine hybrids: Multi-target-directed agents for Alzheimer´s disease endowed with neurogenic properties” (Journal of Enzyme Inhibition and Medicinal Chemistry, 2019).

“And” between values parts separate entries of the source, which are not always exact repeats. Equal values may be shown once. Read-outs that look alike come from different tables or passages of the source.

One test concerns the target T1, σ1R (Cavia porcellus, UniProt Q60492).
T1 construct: the thawed membrane preparation of guinea pig brain cortex; from tissue; host or cells: guinea pig brain cortex membranes
The test is described as follows: Sigma-1 receptor binding, [3H]-(+)-pentazocine competition. Details: species or system guinea pig.

For the next test, the target named is T2, σ2R (Rattus norvegicus, UniProt Q5U3Y7).
T2 construct: 150 µg of rat liver homogenate were incubated; from tissue; host or cells: rat liver homogenate
T2 sequence (Q5U3Y7 1-176): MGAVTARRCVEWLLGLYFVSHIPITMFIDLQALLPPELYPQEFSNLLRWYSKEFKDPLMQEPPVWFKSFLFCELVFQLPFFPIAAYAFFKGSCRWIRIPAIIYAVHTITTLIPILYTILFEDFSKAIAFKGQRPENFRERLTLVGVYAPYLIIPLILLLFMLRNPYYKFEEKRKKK
As to the kind of experiment: Sigma-2 receptor binding, [3H]-DTG competition.

A further test concerns the target T3, recombinant hMAO-A (Homo sapiens, UniProt P21397).
T3 sequence (P21397 1-527): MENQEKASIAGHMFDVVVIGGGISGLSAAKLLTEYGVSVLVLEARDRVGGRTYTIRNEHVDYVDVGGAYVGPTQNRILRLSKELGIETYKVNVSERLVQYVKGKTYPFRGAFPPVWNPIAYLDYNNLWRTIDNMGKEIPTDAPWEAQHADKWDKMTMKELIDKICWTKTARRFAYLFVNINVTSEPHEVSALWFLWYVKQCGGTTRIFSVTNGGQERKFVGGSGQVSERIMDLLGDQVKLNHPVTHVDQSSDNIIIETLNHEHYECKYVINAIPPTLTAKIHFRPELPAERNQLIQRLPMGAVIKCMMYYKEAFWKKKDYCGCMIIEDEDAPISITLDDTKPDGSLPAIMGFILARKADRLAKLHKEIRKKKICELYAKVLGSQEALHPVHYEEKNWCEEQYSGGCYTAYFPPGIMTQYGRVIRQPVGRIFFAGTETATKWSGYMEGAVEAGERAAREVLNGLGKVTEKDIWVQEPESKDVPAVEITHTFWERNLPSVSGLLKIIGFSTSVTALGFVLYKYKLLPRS
The test is described as follows: biochemical. The following applies: for IC50: mean ± SEM (n = 3), 100 µM highest concentration tested. In kind it is biochemical.

A further test deals with T4, hAChE (Homo sapiens, UniProt P22303).
T4 construct: purchased Sigma Chemical Co
As to the kind of experiment: Kinetic analysis of hAChE inhibition (Lineweaver-Burk). In kind it is biochemical. The protocol:
Figure 3. Kinetic study on the mechanism of hAChE inhibition by hybrid 5. (A) Overlaid Lineweaver-Burk reciprocal plots of hAChE initial velocity at increasing substrate concentration (ATCh, 0.2–1.6 mM) in the absence of inhibitor and in the presence of 5 (0–10 µM) are shown. Lines were derived from a least-squares analysis of the data points. (B) Replot of slopes vs. inhibitor concentration for calculating Ki as the intersection in the x-axis. […]
The initial velocity of enzymatic inhibition was measured at four concentrations of the substrate acetylthiocholine (ATCh, 0.2–1.6 mM), in absence and presence of increasing concentrations of inhibitor 5 (0.5–10 µM). For each inhibitor concentration, plotting reciprocals of velocity vs. ATCh concentration (1/V vs. 1/[ATCh]) gave straight lines that were fitted by least-squares analysis (Figure 3). […]

A short description of test [1]: Oxygen radical absorbance capacity assay (ORAC). The following applies: trolox taken as 1.0.
In test [2] the target is T5, human recombinant BACE-1 (hBACE-1) (Homo sapiens, UniProt P56817).
T5 construct: purchased Invitrogen
The test is described as follows: Human BACE-1 inhibition FRET assay. In kind it is biochemical.
Protocol: This experiment was carried out according to the protocol described by the manufacturer (Invitrogen) using a FRET assay[54]. […] The intact substrate is weakly fluorescent and becomes highly fluorescent upon enzymatic cleavage. The assays were conducted in 50 mM sodium acetate buffer, pH 4.5, in a final enzyme concentration (1 U/mL). The mixture was incubated for 60 min at 25 °C under dark conditions and then stopped with 2.5 M sodium acetate.

For test [3], the system named is adult mice SGZ-derived NSCs. The test is described as follows: Neurogenic assay on SGZ-derived neural stem cells grown as neurospheres. In kind it is cell-based, mouse. Particulars: 10 µM, 7 days plus 3 days differentiation, vs. vehicle-treated cultures.
Protocol: DAPI was used for nuclear staining.
Neural stem cells were isolated from the SGZ of the dentate gyrus of the hippocampus of adult mice and cultured as NS according to previously published protocols[75]^,[76]. […] Now, NS were adhered onto 100 μg/mL poly-L-lysine-coated coverslips and treated for 3 additional days in the presence of serum but in the absence of exogenous growth factors to induce differentiation[77]. Finally, the expression of neuronal markers was analysed by immunocytochemistry using antibodies linked to neurogenesis: β-III-tubulin polyclonal antibody (TuJ clone; Abcam), a protein expressed at early stages of neurogenesis and a monoclonal microtubule-associated protein type 2 (MAP-2) antibody, a classical marker of late neuronal maturation. To visualise primary antibodies Alexa-fluor-labeled secondary antibodies (Molecular probes) were used. Nuclei were stained with DAPI. Fluorescent representative images were acquired in a LSM710 laser scanning spectral confocal microscope (Zeiss). […]
Compound was added to NS cultures for 7 days and then, NS were fixed to a substrate and allowed to differentiate in the presence of 6 for a 3-days additional period. Then, we evaluated the expression of β-III-tubulin (TuJ-1 clone; green) and microtubule-associated protein 2 (MAP-2, red) antibodies to visualise early and late neuronal maturation, respectively.

T1 sequence (Q60492 whole entry): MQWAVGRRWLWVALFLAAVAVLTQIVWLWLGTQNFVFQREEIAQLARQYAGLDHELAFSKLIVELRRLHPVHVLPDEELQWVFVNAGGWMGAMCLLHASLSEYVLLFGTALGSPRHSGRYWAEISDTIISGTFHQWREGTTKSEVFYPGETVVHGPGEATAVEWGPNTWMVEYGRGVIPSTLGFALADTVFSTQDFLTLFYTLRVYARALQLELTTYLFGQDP
T5 sequence (P56817 46-501): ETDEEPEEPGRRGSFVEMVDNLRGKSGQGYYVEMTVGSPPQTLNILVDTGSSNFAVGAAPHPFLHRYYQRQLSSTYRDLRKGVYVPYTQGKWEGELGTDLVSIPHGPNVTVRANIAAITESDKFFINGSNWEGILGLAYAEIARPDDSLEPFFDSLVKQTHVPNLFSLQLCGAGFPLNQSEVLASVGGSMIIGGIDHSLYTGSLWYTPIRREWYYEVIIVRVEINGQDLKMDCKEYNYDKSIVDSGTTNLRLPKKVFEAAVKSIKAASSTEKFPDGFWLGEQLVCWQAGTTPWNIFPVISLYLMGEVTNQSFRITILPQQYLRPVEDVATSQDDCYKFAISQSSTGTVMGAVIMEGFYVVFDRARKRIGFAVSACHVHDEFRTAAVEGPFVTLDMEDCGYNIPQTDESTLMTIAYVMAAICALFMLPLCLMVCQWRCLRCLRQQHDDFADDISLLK
T4 sequence (P22303 32-614): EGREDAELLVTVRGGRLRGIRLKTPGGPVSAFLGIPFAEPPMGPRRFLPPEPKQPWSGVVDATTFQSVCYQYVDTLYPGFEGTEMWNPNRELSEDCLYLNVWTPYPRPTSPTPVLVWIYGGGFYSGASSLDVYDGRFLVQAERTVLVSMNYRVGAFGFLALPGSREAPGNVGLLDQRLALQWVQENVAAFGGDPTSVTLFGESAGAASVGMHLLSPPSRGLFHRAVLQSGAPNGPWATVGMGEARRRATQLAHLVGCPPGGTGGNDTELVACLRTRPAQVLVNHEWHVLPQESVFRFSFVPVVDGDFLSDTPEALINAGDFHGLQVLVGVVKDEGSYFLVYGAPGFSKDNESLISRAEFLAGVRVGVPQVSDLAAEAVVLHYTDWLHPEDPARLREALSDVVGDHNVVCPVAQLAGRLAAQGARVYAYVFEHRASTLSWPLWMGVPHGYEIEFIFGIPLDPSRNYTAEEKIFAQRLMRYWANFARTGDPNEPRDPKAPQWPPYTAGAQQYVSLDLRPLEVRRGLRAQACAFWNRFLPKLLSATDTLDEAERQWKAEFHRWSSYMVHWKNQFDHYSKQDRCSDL

Take `COc1ccc2oc(C(=O)Nc3ccc(CN(C)Cc4ccccc4)cc3)cc(=O)c2c1` [Compound 1, N-(4-((Benzyl(methyl)amino)methyl)phenyl)-6-methoxy-4-oxo-4H-chromene-2-carboxamide]: on σ1R, the affinity corresponds to a Ki of 480 ± 50 nM and the “Selectivity vs. σ1R (Kiσ2R/Kiσ1R)” value is reported as 3.7. The Ki (usually a dissociation constant, usually derived from enzyme kinetics or from competition with a known ligand) at σ2R was 1780 ± 430 nM. Also, at recombinant hMAO-A, the “preference for hMAO-A compared to hMAO-B” value is given as “at least 4.4 times” and the IC50 (in general, the concentration that gives 50% inhibition) was 1600 ± 400 nM.
With `COc1cc2oc(C(=O)Nc3ccc(CN(C)Cc4ccccc4)cc3)cc(=O)c2cc1OC` [Compound 5, N-(4-((Benzyl(methyl)amino)methyl)phenyl)-6,7-dimethoxy-4-oxo-4H-chromene-2-carboxamide], the Ki at hAChE stood at 950 nM. In addition, the “mechanism of hAChE inhibition” value on hAChE (Lineweaver-Burk) is “a mixture of competitive and non-competitive mechanisms”. The IC50 on recombinant hMAO-A was found to be 9000 ± 100 nM.
As for `CN(Cc1ccccc1)Cc1ccc(NC(=O)c2cc(=O)c3cc(O)ccc3o2)cc1` [Compound 2, N-(4-((Benzyl(methyl)amino)methyl)phenyl)-6-hydroxy-4-oxo-4H-chromene-2-carboxamide], the Ki at σ1R turned out to be 380 ± 50 nM; on σ2R, 1600 ± 280 nM. In addition, on σ1R, the “Selectivity vs. σ1R (Kiσ2R/Kiσ1R)” value is 4.2. In addition, the IC50 on recombinant hMAO-A worked out at 7000 ± 800 nM. Further, in test [1], the “ORAC, trolox equivalents” value is 1.6 mmol of trolox/mmol of tested compound and 1.6 ± 0.2 mmol of trolox/mmol of tested compound.
Take `COc1cc2oc(C(=O)Nc3cccc(CN(C)Cc4ccccc4)c3)cc(=O)c2cc1OC` [Compound 6, N-(3-((Benzyl(methyl)amino)methyl)phenyl)-6,7-dimethoxy-4-oxo-4H-chromene-2-carboxamide]: in test [2] (10 µM, read-out: hBACE-1 inhibition percentage), the inhibition – broadly, the relative decrease from the control value, in per cent – at 10 µM is about 80%. In addition, the IC50 in test [2] (inhibitor concentrations 0.1–100 µM) is 6700 ± 800 nM; on σ1R, 530 nM and 500 nM; on recombinant hMAO-A, over 100000 nM. Further, the “number of TuJ-1 and MAP-2 marked cells (neuronal differentiation of NSCs)” value in test [3] is listed as “clearly increased”. On σ1R, the “Selectivity vs. σ1R (Kiσ2R/Kiσ1R)” value is recorded as 2.5. The inhibitory constant (Ki) is 530 ± 70 nM on σ1R (guinea pig brain cortex membranes, [3H]-(+)-pentazocine, mean ± SEM, read-out: Ki σ1R) and 1300 ± 350 nM at σ2R (rat liver homogenate, [3H]-DTG, mean ± SEM, read-out: Ki σ2R).
